Like-named read-outs stand apart in the source and are kept apart here.
Tests used:
human whole blood = settings: human whole blood, 60 min 37 °C; for Calculated hemolysis ratio: peptides 100 μM, neg. PBS, 3 x 2 replicates
Method: Blood is drawn from a human or an animal, and next, the washed erythrocytes are incubated together with the compound or material under investigation. If the compound causes hemolysis, hemoglobin (along with other cellular constituents) will be released into the supernatant.
All blood was collected in Lithium Heparin tubes 4 mL (Greiner Bio-One, Kremsmünster, Austria) or Coagulation sodium citrate 3.2% tubes 3 mL (Greiner Bio-One).
These three peptides were synthesized by Genscript Inc. (Piscataway, NJ, USA), and stock solutions of 1 mg/mL were made from the purchased powders. […] All peptides were diluted to yield a 100 μM final concentration in the hemolysis assays.
Triton X-100 (T8787) and Tween-20 (P2287) detergents were purchased from Sigma Aldrich and diluted to obtain 10% stock solutions by weighing (w/v). A sodium Dodecyl Sulfate (SDS) 10% solution was purchased from Invitrogen (Waltham, MA, USA, 15553027). All subsequent dilutions annotated in figures were made from these stocks.
As soon as possible after phlebotomy, the blood samples were centrifuged at 1700× g for 5 min. The supernatant was removed by aspiration and 2 mL of PBS pH 7 was added. The washing step was repeated three times or until the supernatant was clear. After final aspiration, the remaining pellet was diluted 1:100 in PBS pH 7 to obtain a 1% erythrocyte suspension (or 1:100, 1:50, and 1:20 for assays testing the effect of erythrocyte concentration). For experiments using whole blood, the washing steps were not performed, but downstream experimentation was identical. For experiments performed with 96-well plates, 50 μL of test compound, water, or detergent were mixed with 50 μL of blood sample (1% erythrocyte suspension or whole blood). For experiments using larger volumes, 250 μL of test compound, water, or detergent were mixed with 250 μL blood sample in an Eppendorf tube. Samples were subsequently incubated at 37 °C for 60 min (or 15, 30, 60, 90, or 120 min for assays evaluating the effect of incubation time). After incubation, the plates/tubes were centrifuged at 1700× g for 5 min, and then 50 μL of the supernatants were transferred to transparent, flat-bottom 96-well plates (Anicrin, A013418). Finally, absorption was measured at 405, 530, and 570 nm in a Victor Nivo Multimode microplate reader (Perkin Elmer, Waltham, MA, USA).

[1] = previously well-characterized AMPs; ref [9],[33]; cited from earlier work
Method: OD measurements of human whole blood treated with hemolyzing agents or AMPs at 405 nm (A), 530 nm (B), and 570 nm (C) were recorded (Figure 6) and HRs calculated (Table 5). For comparison, we also included the two previously well-characterized AMPs melittin and polymyxin B, which exert high and low cytotoxicity, respectively. […] From 530 and 570 nm measurements, the expected conce ...

[2] = tested on: washed human erythrocytes; test: Hemolysis assay, washed human erythrocytes; settings: peptides 100 μM, 60 min 37 °C, pos. 10% Triton X-100, neg. PBS, 3 x 2 replicates

SMILES: CC[C@H](C)[C@H](NC(=O)CN)C(=O)NCC(=O)N[C@@H](C)C(=O)N[C@H](C(=O)N[C@@H](CC(C)C)C(=O)N[C@@H](CCCCN)C(=O)N[C@H](C(=O)N[C@@H](CC(C)C)C(=O)N[C@H](C(=O)N[C@H](C(=O)NCC(=O)N[C@@H](CC(C)C)C(=O)N1CCC[C@H]1C(=O)N[C@@H](C)C(=O)N[C@@H](CC(C)C)C(=O)N[C@H](C(=O)N[C@@H](CO)C(=O)N[C@@H](Cc1c[nH]c2ccccc12)C(=O)N[C@H](C(=O)N[C@@H](CCCCN)C(=O)N[C@@H](CCCNC(=N)N)C(=O)N[C@@H](CCCCN)C(=O)N[C@@H](CCCNC(=N)N)C(=O)N[C@@H](CCC(N)=O)C(=O)N[C@@H](CCC(N)=O)C(N)=O)[C@@H](C)CC)[C@@H](C)CC)[C@@H](C)O)[C@@H](C)O)C(C)C)C(C)C [Melittin, reference compound]
- Blood clotting in whole blood (human whole blood; melittin 100 μM): clotting effect was also observed
- Calculated hemolysis ratio (human whole blood; OD 405 nm (signal saturated), pos. 10% SDS): 98.3 ± 1.4%
- Calculated hemolysis ratio (human whole blood; OD 530 nm, pos. 10% SDS): 36.6 ± 8.7%
- Calculated hemolysis ratio (human whole blood; OD 570 nm, pos. 10% Triton X-100 (table title; text says 10% SDS)): 54 ± 15.5%
- Cytotoxicity (qualitative) [1]: high
- Calculated hemolysis ratio ([2]; 1% washed human erythrocytes, OD 530 nm): 78.4 ± 4.3%
- Calculated hemolysis ratio ([2]; 1% washed human erythrocytes, OD 570 nm): 79.8 ± 8.2%
- Calculated hemolysis ratio ([2]; Table 6: 1% washed human erythrocytes, OD 405 nm): 84.4 ± 8.1%

— paper PMC9917735, “Optimization of the Hemolysis Assay for the Assessment of Cytotoxicity” (International Journal of Molecular Sciences, 2023)
